# Measurements: US20240182489A1, “New 5,6,7,8-Tetrahydropyrido[4',3':4,5]thieno[2,3-d]pyrimidin-4(3H)-one Derivatives as Sigma Ligands” (ACONDICIONAMIENTO TARRASENSE, priority 2021, published 2024)
# Molecular target: T1, human σ1 receptor (Homo sapiens, UniProt Q99720)
# T1 construct: expressed in transfected cells; host or cells: HEK-293 (membranes)
# Test: Human σ1 receptor radioligand assay
# Type: binding
# Conditions: [3H](+)-pentazocine radioligand, transfected HEK-293 membranes
# T1 sequence (Q99720 whole entry): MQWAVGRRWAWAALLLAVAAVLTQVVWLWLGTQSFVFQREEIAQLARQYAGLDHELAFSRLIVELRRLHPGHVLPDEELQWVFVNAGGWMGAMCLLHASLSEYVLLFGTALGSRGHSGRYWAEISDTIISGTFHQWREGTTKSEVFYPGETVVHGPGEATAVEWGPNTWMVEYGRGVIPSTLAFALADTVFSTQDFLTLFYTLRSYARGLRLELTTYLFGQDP
row,Structure (SMILES),Ki [nM]
1,"C[C@H](c1cccc(C#N)c1)n1cnc2sc3c(c2c1=O)CCNC3 [Example 14, (R)-3-(1-(4-Oxo-5,6,7,8-tetrahydropyrido[4′,3′:4,5]thieno[2,3-d]pyrimidin-3(4H)-yl)ethyl)benzonitrile]",< 100
2,"Cc1nc(-c2ccc(C(C)n3cnc4sc5c(c4c3=O)CCNC5)cc2)no1 (centres unmarked) [Example 24, 3-(1-(4-(5-Methyl-1,2,4-oxadiazol-3-yl)phenyl)ethyl)-5,6,7,8-tetrahydropyrido[4′,3′:4,5]thieno[2,3-d]pyrimidin-4(3H)-one]",> 500
3,"C[C@@H](c1ccc(C#N)c(F)c1)n1cnc2sc3c(c2c1=O)CCNC3 [Example 19, (S)-2-Fluoro-4-(1-(4-oxo-5,6,7,8-tetrahydropyrido[4′,3′:4,5]thieno[2,3-d]pyrimidin-3(4H)-yl)ethyl)benzonitrile]",< 500
4,"C[C@@H](c1cc(F)cc(Cl)c1)n1cnc2sc3c(c2c1=O)CCNC3 [Example 27, (S)-3-(1-(3-Chloro-5-fluorophenyl)ethyl)-5,6,7,8-tetrahydropyrido[4′,3′:4,5]thieno[2,3-d]pyrimidin-4(3H)-one]",< 100
5,"C[C@@H](c1ccc(F)cc1Cl)n1cnc2sc3c(c2c1=O)CCNC3 [Example 25, (S)-3-(1-(2-Chloro-4-fluorophenyl)ethyl)-5,6,7,8-tetrahydropyrido[4′,3′:4,5]thieno[2,3-d]pyrimidin-4(3H)-one]",< 500
6,"C[C@H](c1ccc(F)cc1)n1cnc2sc3c(c2c1=O)CNCC3 [Example 17, (R)-3-(1-(4-Fluorophenyl)ethyl)-5,6,7,8-tetrahydropyrido[3′,4′:4,5]thieno[2,3-d]pyrimidin-4(3H)-one]",> 500
7,"C[C@@H](c1cc(Cl)ccc1F)n1cnc2sc3c(c2c1=O)CCNC3 [Example 29, (S)-3-(1-(5-Chloro-2-fluorophenyl)ethyl)-5,6,7,8-tetrahydropyrido[4′,3′:4,5]thieno[2,3-d]pyrimidin-4(3H)-one]",< 500
8,"C[C@H](c1ccc(F)cc1Cl)n1cnc2sc3c(c2c1=O)CCNC3 [Example 26, (R)-3-(1-(2-chloro-4-fluorophenyl)ethyl)-5,6,7,8-tetrahydropyrido[4′,3′:4,5]thieno[2,3-d]pyrimidin-4(3H)-one]",> 500
9,"C[C@H](c1cc(F)cc(C#N)c1)n1cnc2sc3c(c2c1=O)CCNC3 [Example 30, (R)-3-Fluoro-5-(1-(4-oxo-5,6,7,8-tetrahydropyrido[4′,3′:4,5]thieno[2,3-d]pyrimidin-3(4H)-yl)ethyl)benzonitrile]",< 100
10,"C[C@H](c1cc(F)cc(Cl)c1)n1cnc2sc3c(c2c1=O)CCNC3 [Example 28, (R)-3-(1-(3-chloro-5-fluorophenyl)ethyl)-5,6,7,8-tetrahydropyrido[4′,3′:4,5]thieno[2,3-d]pyrimidin-4(3H)-one]",< 100
11,"C[C@H](c1ccc(C#N)c(F)c1)n1cnc2sc3c(c2c1=O)CCNC3 [Example 20, (R)-2-fluoro-4-(1-(4-oxo-5,6,7,8-tetrahydropyrido[4′,3′:4,5]thieno[2,3-d]pyrimidin-3(4H)-yl)ethyl)benzonitrile]",> 500
